Consider 3 compounds from patent publication US20240285566A1, “SUBCUTANEOUS FORMULATION AND METHODS FOR TREATING EDEMA REFRACTORY TO ORAL DIURETICS” (RESQ Pharmaceuticals LLC, priority 2021, published 2024).

The structures appear in SMILES notation.

Data set [1] in a line: Solubility of bumetanide free acid in water with and without tetradecyl-β-D-maltoside (HPLC). In kind it is physicochemical. As to the method: Bumetanide, 10 mg, in its free acid form was added to 1 mL of deionized water and mixed using a vortex and sonicator. The solution was filtered using a 0.22 μm nylon syringe filter. To 900 μL deionized water, 100 μL of the filtered bumetanide solution was added before being characterized for the concentration of the bumetanide in solution using HPLC. The concentration of bumetanide was determined using a standard curve generated by bumetanide solutions of known concentrations. […] Therefore, to the 10 mg of bumetanide, 1 mL of deionized water containing 1.0%, 0.5% or 0.1% of the surfactant tetradecyl-β-D-maltoside. The bumetanide was then solubilized using a vortex and sonicator, after which it was filtered using a 0.22 μm nylon syringe filter. To 900 μL deionized water, 100 μL of the filtered bumetanide solution was added before being characterized for the concentration of the bumetanide in solution using HPLC. The resulting bumetanide concentrations are recorded in Table 1.

A short description of data set [2]: in vivo. Also on record: species or system beagle dogs. Conditions: dog. The protocol:
The purpose of this study was to assess the pharmacokinetic profiles of various formulations of bumetanide, including arginine bumetanide salts (FS-5 and FS-6) and potassium bumetanide salts (FS-3 and FS-4) for subcutaneous administration, and an bumetanide intranasal formulation (F82), which are described in Table 60, when each formulation is administered as a single subcutaneous, or intranasal in different vehicles when compared to single IV administration dose in male and female beagle dogs.
A total of four dogs were assigned to the study (3 males, 9-13 kg and 1 female, 7-10 kg) ranging from 1 to 3 years old.
The study was conducted in 6 Events in the same animals, separated by at least 48 hours or more washout period between events.
For subcutaneous administration the bumetanide formulations were injected subcutaneously (100 μL/dog), using a 25G hypodermic needle. After each application, successful dosing was verified by visual inspection of the dog injection site and after 1 minute of dosing. Only successful administrations will be accepted.
For intranasal administration, each dog was held in an upright position with the nose pointing up. The test article (50 μL) was delivered into each nostril (total 100 μL/dog). The nose was held pointing up for ˜60 seconds after dosing. After each application, successful dosing was verified by visual inspection of the pipette tip and the dog nostril.
For intravenous administration, the commercially available injection of bumetanide (Walgreens, 0.25 mg/mL) was used and administered via the cephalic vein over a period of 30 seconds (4.0 mL/dog, IV).
Body weights of the dogs were measured for each dog prior to each dose on the day of dose, and approximately 48 hours post-dose for each event. For some events, the 48 hour post-dose weight was the same weight as the pre-dose weight for the following dose. Urine production was also monitored post-dose to assess diuresis by making observations at 30 minutes, 1, 2, 3 and 4 hours post-dose. Urine volume was not measured. On each day of dosing, blood (˜600 μL/timepoint, jugular or cephalic vein) were collected in red top tubes with clotting activator (Sarstedt, Inc-41.1392.105 or similar) to obtain serum at the times described in Table 61. Blood was centrifuged at 5000×g for 10 minutes at 4° C. If the samples were collected outside the collection window, they were not be considered a protocol deviation. Serum was divided into 2 aliquots of ˜150 μL each and stored frozen at −20° C. until it was shipped to Climax Laboratories, Inc. on dry ice.

Data set [3] is described as follows: Stability of arginine and potassium bumetanide salts over four weeks. The class given is physicochemical. Particulars: for stability of the salt solution: at either 5° C. or 25° C. As to the method: The stability of the arginine and potassium bumetanide salts was monitored over a four week period with storage at either 2-8° C. or 25° C. for that time period. The bumetanide salt solutions were evaluated on the basis of pH, concentration of bumetanide in solution, the percent assay recovery and the presence of an impurity (see Tables 17 and 18).

In general, AUC refers to the area under the concentration-time curve, a measure of exposure. In general, AUC(0-t) refers to the area under the concentration-time curve up to a stated or last time point. Turning to `CCCCNc1cc(C(=O)O)cc(S(N)(=O)=O)c1Oc1ccccc1` [Bumetanide], the solubility in water result in data set [1] (free acid form, deionized water, no surfactant) is given as “Nearly no bumetanide in the free acid form was soluble water”; in data set [1] (not in a salt form, in the presence of surfactant), “incredibly low solubility in water”. The AUC in data set [2] (beagle, iv, 1 mg) is 140 ng·h/mL; in data set [2] (beagle, iv, 1 mg, AUC (ng*h/mL)), 140 ng·h/mL; in data set [2] (both sexes, beagle, iv, 1 mg), 185 ng·h/mL; in data set [2] (both sexes, beagle, iv, 1 mg, AUC (ng*h/mL)) it was 185 ng·h/mL. In data set [2] (both sexes, beagle, iv, 1 mg), this compound returned an AUC(0-t) of 185 ng·h/mL.
As for `CCCCNc1cc(C(=O)O)cc(S(N)(=O)=O)c1Oc1ccccc1.N=C(N)NCCCC(N)C(=O)O` [arginine bumetanide salt], the Assay in data set [3] (1 week at 5° C.) was 5.08 mg/mL; in data set [3] (1 week at 25° C.), 5.06 mg/mL; in data set [3] (2 weeks at 5° C.) it was 4.99 mg/mL; in data set [3] (2 weeks at 25° C.), 4.97 mg/mL; in data set [3] (4 weeks at 5° C.) it was 4.89 mg/mL; in data set [3] (4 weeks at 25° C.) it was 4.97 mg/mL. For the same compound, the Assay in data set [3] (T0) is on record as 5.07 mg/mL. Also, the pH in data set [3] (1 week at 5° C.) stood at 7.0; in data set [3] (1 week at 25° C.), 7.1; in data set [3] (2 weeks at 5° C.), 7.0; in data set [3] (2 weeks at 25° C.), 7.0; in data set [3] (4 weeks at 5° C.), 7.0; in data set [3] (4 weeks at 25° C.) it was 7.1. The pH in data set [3] (T0) is 7.0. Also, the Osmolality in data set [3] (T0) is listed as 335 mOsm/kg. Besides, the Viscosity in data set [3] (T0) is 1.3 cP. The “stability of the salt solution” value in data set [3] is listed as “stable for up to four weeks”. Moreover, in data set [3] (initially or after four weeks, 5° C. and 25° C.), the “impurity by HPLC” value is given as “no impurity was detected”.
On to `CCCCNc1cc(C(=O)[O-])cc(S(N)(=O)=O)c1Oc1ccccc1.[K+]` [potassium bumetanide salt], for which the Assay in data set [3] (1 week at 5° C.) is 5.18 mg/mL; in data set [3] (1 week at 25° C.) it was 5.10 mg/mL; in data set [3] (2 weeks at 5° C.) it was 4.97 mg/mL; in data set [3] (2 weeks at 25° C.), 4.96 mg/mL; in data set [3] (4 weeks at 5° C.), 5.00 mg/mL; in data set [3] (4 weeks at 25° C.) it was 5.03 mg/mL. Besides, the Assay in data set [3] (T0) was determined as 5.10 mg/mL. Moreover, the pH in data set [3] (1 week at 5° C.) is on record as 7.0; in data set [3] (1 week at 25° C.), 7.0; in data set [3] (2 weeks at 5° C.) it was 7.0; in data set [3] (2 weeks at 25° C.), 7.1; in data set [3] (4 weeks at 5° C.), 7.0; in data set [3] (4 weeks at 25° C.), 7.1. For the same compound, the pH in data set [3] (T0) turned out to be 7.0. Moreover, in data set [3] (T0), the Osmolality worked out at 317 mOsm/kg. In addition, the Viscosity in data set [3] (T0) is given as 1.3 cP. In data set [3], the “stability of the salt solution” value is reported as “stable for up to four weeks”. Further, the “serum concentrations compared to IV administration of bumetanide” value in data set [2] is “higher serum concentrations”.
